Our source for the IC50 values is US6218396A, “Substituted pyridino arylpiperazines useful in the treatment of benign prostatic hyperplasia” (Orth-McNeil Pharmaceutical, Inc., priority 1999, dated 2001).

In one assay the target is T1, α1a-AR (Homo sapiens, UniProt P35348).
T1 construct: expressed in transfected cells; host or cells: COS cells (pcDNA3, transient DEAE-dextran transfection; membranes)
T1 sequence (P35348 1-466): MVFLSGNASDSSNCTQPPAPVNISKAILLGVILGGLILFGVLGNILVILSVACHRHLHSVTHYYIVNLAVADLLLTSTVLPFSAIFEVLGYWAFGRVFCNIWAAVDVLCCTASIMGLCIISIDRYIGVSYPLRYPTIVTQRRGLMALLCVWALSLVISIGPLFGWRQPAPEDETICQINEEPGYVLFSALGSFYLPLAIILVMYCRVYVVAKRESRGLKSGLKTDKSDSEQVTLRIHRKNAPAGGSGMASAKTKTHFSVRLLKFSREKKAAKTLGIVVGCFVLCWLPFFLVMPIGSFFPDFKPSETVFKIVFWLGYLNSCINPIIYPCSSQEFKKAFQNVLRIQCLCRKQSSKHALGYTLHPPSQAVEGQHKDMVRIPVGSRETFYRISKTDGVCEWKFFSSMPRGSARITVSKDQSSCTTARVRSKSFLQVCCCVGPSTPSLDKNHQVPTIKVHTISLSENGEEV
Briefly: receptor binding assay, [125I]-HEAT, membranes of COS cells expressing α1a-AR. The note with it: [125I]-HEAT 50 pM, human α1a-AR in COS cell membranes; unit 'nanomolar'. An excerpt: (§1) The DNA sequences of the three cloned human α1-AR subtypes have been published. […] We used published DNA sequence information to design primers for use in RT-PCR amplification of each subtype to obtain cloned cDNAs. Human poly A+ RNA was obtained from commercially available sources and included hippocampus and prostate samples, sources which have been cited in the literature. For the primary screen a radio ligand binding assay was used which employed membrane preparations from cells expressing the individual cloned receptor cDNAs. Radiolabeled ligands with binding activity on all three subtypes (non-selective) are commercially available ([125I]-HEAT, [3H]-prazosin).
(§2) Each α1 receptor subtype was cloned from poly A+ RNA by the standard method of reverse transcription-polymerase chain reaction (RT-PCR). The following sources of polyA+ RNA were used for the cloning of the α1 receptor subtypes: α1a -AR, human hippocampus and prostate, α1b -AR, human hippocampus, α1d -AR, human hippocampus. The resulting cDNAs were cloned into the pcDNA3 mammalian expression vector (Invitrogen Corp., San Diego Calif.). Each DNA was sequenced for verification and to detect any possible mutations introduced during the amplification process. Any deviation in sequence from the published consensus for each receptor subtype was corrected by site-directed mutagenesis.
(§3) The three α1-AR subtypes (a, b, d) were transfected into COS cells using a standard DEAE-dextran procedure with a chloroquine shock. In this procedure, each tissue culture dish (100 mm) was inoculated with 3.5×10^6 cells and transfected with 10 μg of DNA. Approximately 72 hours post-transfection, the cells were harvested and COS membranes were prepared. Transfected COS cells from 25 plates (100 mm) were scraped and suspended in 15 mL of TE buffer (50 mM Tris-HCl, 5 mM EDTA, pH7.4). The suspension was disrupted with a homogenizer. It was then centrifuged at 1000×g for 10 minutes at […]. The supernatant was centrifuged at 34,500×g for 20 minutes at 4° C. The pellet was resuspended in 5 mL TNE buffer (50 mM Tris-HCl, 5 mM EDTA, 150 mM NaCl, pH7.4). The resulting membrane preparation was aliquoted and stored at -70° C. The protein concentration was determined following membrane solubilization with TritonX-100.
(§4) The ability of each compound to bind to each of the α1-AR subtypes was assessed in a receptor binding assay. [125I]-HEAT, a non-selective α1-AR ligand, was used as the radiolabeled ligand. Each well of a 96-well plate received: 140 μL TNE, 25 μL [125I]-HEAT diluted in TNE (50,000 cpm; final concentration 50 pM), 10 μL test compound diluted in DMSO (final concentration 1 pM-10 μM), […] COS cell membrane preparation expressing one of the three α1-AR subtypes (0.05-0.2 mg membrane protein). The plate was incubated for 1 hour at room temperature and the reaction mixtures were filtered through a Packard GF/C Unifilter filter plate. The filter plate was dried for 1 hour in a vacuum oven. Scintillation fluid ([…]) was added to each well, and the filter plate was counted in a Packard Topcount scintillation counter. Data was analyzed using GraphPad Prism software.

The target of another assay is T2, α1b-AR (Homo sapiens, UniProt P35368).
T2 construct: expressed in transfected cells; host or cells: COS cells (pcDNA3, transient DEAE-dextran transfection; membranes)
T2 sequence (P35368 1-520): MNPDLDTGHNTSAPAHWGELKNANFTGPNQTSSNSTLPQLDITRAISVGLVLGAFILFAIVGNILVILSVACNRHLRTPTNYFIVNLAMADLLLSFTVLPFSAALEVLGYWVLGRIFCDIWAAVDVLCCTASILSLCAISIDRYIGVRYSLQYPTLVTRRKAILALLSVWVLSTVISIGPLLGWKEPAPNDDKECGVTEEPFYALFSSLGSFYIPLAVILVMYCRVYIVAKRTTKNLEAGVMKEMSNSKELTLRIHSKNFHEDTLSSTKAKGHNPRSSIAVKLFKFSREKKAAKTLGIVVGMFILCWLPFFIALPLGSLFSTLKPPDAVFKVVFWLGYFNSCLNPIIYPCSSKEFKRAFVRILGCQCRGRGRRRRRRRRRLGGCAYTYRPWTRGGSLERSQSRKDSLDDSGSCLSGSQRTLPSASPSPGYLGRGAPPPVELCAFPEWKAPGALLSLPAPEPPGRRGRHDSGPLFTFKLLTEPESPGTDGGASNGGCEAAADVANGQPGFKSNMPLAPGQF
Briefly: receptor binding assay, [125I]-HEAT, membranes of COS cells expressing α1b-AR. To be noted: [125I]-HEAT 50 pM, human α1b-AR in COS cell membranes; unit 'nanomolar'.
Excerpt: as §1, §2, §3, §4

The next assay concerns the target T3, α1d-AR (Homo sapiens, UniProt P25100).
T3 construct: expressed in transfected cells; host or cells: COS cells (pcDNA3, transient DEAE-dextran transfection; membranes)
T3 sequence (P25100 1-572): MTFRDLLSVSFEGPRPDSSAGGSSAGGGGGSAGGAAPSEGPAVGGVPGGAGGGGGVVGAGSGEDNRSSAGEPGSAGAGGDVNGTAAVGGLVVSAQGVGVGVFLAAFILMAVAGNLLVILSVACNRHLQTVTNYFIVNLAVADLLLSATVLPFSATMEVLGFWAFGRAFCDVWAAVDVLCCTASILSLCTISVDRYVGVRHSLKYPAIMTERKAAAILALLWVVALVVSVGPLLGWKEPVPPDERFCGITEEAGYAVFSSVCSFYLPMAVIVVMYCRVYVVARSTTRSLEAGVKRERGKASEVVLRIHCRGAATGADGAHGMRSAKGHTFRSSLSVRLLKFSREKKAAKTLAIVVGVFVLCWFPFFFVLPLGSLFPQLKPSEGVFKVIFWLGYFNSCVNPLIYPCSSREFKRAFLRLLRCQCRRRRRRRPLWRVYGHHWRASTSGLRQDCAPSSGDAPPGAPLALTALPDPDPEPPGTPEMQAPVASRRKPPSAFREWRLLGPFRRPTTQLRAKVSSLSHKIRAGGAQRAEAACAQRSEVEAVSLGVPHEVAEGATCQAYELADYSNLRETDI
Briefly: receptor binding assay, [125I]-HEAT, membranes of COS cells expressing α1d-AR. The note with it: [125I]-HEAT 50 pM, human α1d-AR in COS cell membranes; unit 'nanomolar'.
Excerpt: as §1, §2, §3, §4

In general, IC50 refers to the concentration that gives 50% inhibition.

As to `CC(C)Oc1ccccc1N1CCN(CC(O)CNC(=O)c2cccnc2Oc2ccc(Cl)c(Cl)c2)CC1` (stereo not drawn) [Compound 30], the IC50 at α1a-AR stood at 2 nM; at α1b-AR it was 2250 nM; on α1d-AR it was 56 nM.
As to `Cc1ccc(Oc2ncccc2C(=O)NCC(O)CN2CCN(c3ccccc3OC(C)C)CC2)cc1` (stereo not drawn) [Compound 41], the figures for the half-maximal inhibitory concentration (IC50) at α1a-AR, on α1b-AR and at α1d-AR were 0.52 nM, 928 nM and 21 nM, respectively.
For the compound `Cc1ccccc1Oc1ncccc1C(=O)NCC(O)CN1CCN(c2ccccc2OC(C)C)CC1` (stereo not drawn) [Compound 39], the IC50 on α1a-AR was 1.1 nM; at α1b-AR, 730 nM; on α1d-AR, 1.7 nM.
The corresponding values for `COc1ncccc1C(=O)NCC(O)CN1CCN(c2ccccc2OC(C)C)CC1` (stereo not drawn) [Compound 13] are 3.5 nM, above 2000 nM and 191 nM.
With `CC(C)Oc1ccccc1N1CCN(CC(O)CNC(=O)c2cccnc2Nc2cccc(C(F)(F)F)c2)CC1` (stereo not drawn) [Compound 11], the figures for the IC50 at α1a-AR, on α1b-AR and on α1d-AR were 25 nM, 1020 nM and 79 nM, respectively.
On to `Cc1ccc(Oc2ncccc2C(=O)NC[C@@H](O)CN2CCN(c3ccccc3OC(C)C)CC2)cc1` [Compound 28], for which the half-inhibitory concentration (IC50) at α1a-AR was 25 nM; on α1b-AR, 361 nM; on α1d-AR it was 969 nM.
Take `Cc1ccc(Oc2ncccc2C(=O)NC[C@H](O)CN2CCN(c3ccccc3OC(C)C)CC2)cc1` [Compound 18]: the values for the concentration for half-maximal inhibition (IC50) at α1a-AR, at α1b-AR and on α1d-AR were 0.51 nM, 290 nM and 50 nM, respectively.
As for `CC(C)Oc1ccccc1N1CCN(CC(=O)CNC(=O)c2cccnc2Oc2ccccc2)CC1` [Compound 17], the IC50 at α1a-AR was found to be 63 nM; on α1b-AR, 887 nM; at α1d-AR, 546 nM.
For the compound `CCOc1ccccc1N1CCN(CC(O)CNC(=O)c2cccnc2Oc2ccccc2)CC1` (stereo not drawn) [Compound 34], the values for the concentration for half-maximal inhibition (IC50) on α1a-AR, on α1b-AR and at α1d-AR were 9.1 nM, 132 nM and 206 nM, respectively.
For `CC(C)Oc1ccccc1N1CCN(CC(O)CNC(=O)c2cccnc2Oc2ccccc2)CC1` (stereo not drawn) [Compound 3], in that order: 1.5 nM, 909 nM and 211 nM.
Take `COC(CNC(=O)c1cccnc1Oc1ccccc1)CN1CCN(c2ccccc2OC(C)C)CC1` (stereo not drawn) [Compound 16]: the IC50 on α1a-AR amounted to 2.4 nM; on α1b-AR it was 1360 nM; at α1d-AR, 21 nM.
With `CC(C)Oc1ccccc1N1CCN(CC(O)CNC(=O)c2cccnc2Oc2ccc(Cl)cc2)CC1` (stereo not drawn) [Compound 42], the values for the IC50 at α1a-AR, at α1b-AR and on α1d-AR were 1 nM, 838 nM and 74 nM, respectively.
With `CC(C)Oc1ccccc1N1CCN(CC(O)CNC(=O)c2cccnc2Oc2cccc(Cl)c2)CC1` (stereo not drawn) [Compound 37], the 50% inhibitory concentration (IC50) came to 0.91 nM at α1a-AR, 952 nM on α1b-AR and 180 nM at α1d-AR.
As to `CC(C)Oc1ccccc1N1CCN(CC(O)CNC(=O)c2cccnc2Oc2ccc(C(C)(C)C)cc2)CC1` (stereo not drawn) [Compound 33], the IC50 is 3.3 nM at α1a-AR, above 2000 nM at α1b-AR and 78 nM at α1d-AR.
On to `COc1ccc(Oc2ncccc2C(=O)NCC(O)CN2CCN(c3ccccc3OC(C)C)CC2)cc1` (stereo not drawn) [Compound 10], for which the figures for the 50% inhibitory concentration (IC50) on α1a-AR, at α1b-AR and at α1d-AR were 2.4 nM, 1910 nM and 131 nM, respectively.
With `Cc1ccc(Oc2ncccc2C(=O)NCCCN2CCN(c3ccccc3OC(C)C)CC2)cc1` [Compound 29], the IC50 on α1a-AR was 0.27 nM; on α1b-AR, above 2000 nM; on α1d-AR, 43 nM.
For `COc1ccccc1Oc1ncccc1C(=O)NCC(O)CN1CCN(c2ccccc2OC(C)C)CC1` (stereo not drawn) [Compound 40], in that order: 1.7 nM, 580 nM and 2.2 nM.
For `CC(C)Oc1ccccc1N1CCN(CCCNC(=O)c2cccnc2Oc2ccccc2)CC1` [Compound 5], in that order: 0.64 nM, 151 nM and 40 nM.
For `COc1ccccc1N1CCN(CC(O)CNC(=O)c2cccnc2Oc2ccccc2)CC1` (stereo not drawn) [Compound 32], in that order: 30 nM, 1570 nM and 147 nM.
On to `CC(C)Oc1ccccc1N1CCN(CC(O)CNC(=O)c2cccnc2Sc2ccccc2)CC1` (stereo not drawn) [Compound 43], for which the IC50 at α1a-AR was 2 nM; at α1b-AR, 1220 nM; on α1d-AR, 70 nM.
Regarding `CC(C)Oc1ccccc1N1CCN(CC(O)CNC(=O)c2cccnc2Oc2cccc(N(C)C)c2)CC1` (stereo not drawn) [Compound 38], the IC50 at α1a-AR came out at 2 nM; on α1b-AR it was 972 nM; at α1d-AR, 56 nM.
The corresponding values for `CC(C)Oc1ccccc1N1CCN(CC(O)CNC(=O)c2cccnc2Oc2ccc(F)cc2)CC1` (stereo not drawn) [Compound 36] are 1.5 nM, 1180 nM and 148 nM.
As to `CC(C)Oc1ccccc1N1CCN(C[C@H](O)CNC(=O)c2cccnc2Oc2ccccc2)CC1` [Compound 35], the IC50 on α1a-AR worked out at 10.2 nM; at α1b-AR, 889 nM; at α1d-AR, 314 nM.
As to `CC(C)Oc1ccccc1N1CCN(CC(O)CNC(=O)c2cccnc2Sc2ccc(Cl)cc2)CC1` (stereo not drawn) [Compound 12], the results for the IC50 at α1a-AR, at α1b-AR and on α1d-AR were 2.6 nM, 806 nM and 299 nM, respectively.
In the case of `CC(C)Oc1ccccc1N1CCN(C[C@@H](O)CNC(=O)c2cccnc2Oc2ccc(Cl)cc2)CC1` [Compound 27], the results for the IC50 at α1a-AR, at α1b-AR and at α1d-AR were 0.86 nM, 791 nM and 57 nM, respectively.
